{"source": "patent US20230301988A1", "about": "(priority 2020, published 2023)", "key": {"[1]": {"molecular_target": "cathepsin B (Homo sapiens, UniProt P07858)", "assay": "Kinetic assay for cathepsin B", "type": "biochemical", "conditions": "substrate, pH 5.5, 25° C."}, "[2]": {"molecular_target": "T1, cathepsin L (Homo sapiens, UniProt P07711)", "T1 sequence (P07711 114-333)": "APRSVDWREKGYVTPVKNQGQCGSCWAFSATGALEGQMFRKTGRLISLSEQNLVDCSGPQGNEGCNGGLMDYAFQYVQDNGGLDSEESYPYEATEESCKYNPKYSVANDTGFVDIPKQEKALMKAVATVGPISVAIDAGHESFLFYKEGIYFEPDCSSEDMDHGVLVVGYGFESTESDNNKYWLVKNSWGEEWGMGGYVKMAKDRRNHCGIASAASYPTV", "assay": "Kinetic assay for cathepsin L", "type": "biochemical", "experimental": "(§1) For assays of cathepsin B, L, and S, cruzain inhibitors were evaluated in reaction mixtures containing a buffer of sodium acetate (pH 5.5), 1 mM CHAPS, 1 mM Na2EDTA, and 5 mM DTT at 25° C. The substrate Cbz-Phe-Arg-AMC was dissolved in 100% DMSO, as were all inhibitors, and aliquots of both substrates and inhibitors were added to 0.25 mL reaction mixtures to final concentrations of 10% DMSO (v/v). […] Cruzain inhibitors were added at seven concentrations and one fixed concentration of Cbz-Phe-Arg-AMC, and time courses of AMC formation were analyzed as with cruzain."}, "[3]": {"molecular_target": "cathepsin S (Homo sapiens, UniProt P25774)", "sequence (P25774 115-331)": "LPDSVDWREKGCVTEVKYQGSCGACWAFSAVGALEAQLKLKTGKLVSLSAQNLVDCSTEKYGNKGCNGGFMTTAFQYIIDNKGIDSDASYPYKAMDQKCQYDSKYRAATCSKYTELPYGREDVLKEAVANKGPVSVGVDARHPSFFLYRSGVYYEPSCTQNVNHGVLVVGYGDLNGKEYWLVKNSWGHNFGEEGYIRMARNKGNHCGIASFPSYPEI", "assay": "Kinetic assay for cathepsin S", "type": "biochemical", "experimental": "as §1"}, "[4]": {"system": "Vero E6 cells", "assay": "Bio-orthogonal labeling of protein targets in Vero E6 cells, in-gel fluorescence", "type": "cell-based, African green monkey", "conditions": "for labelling of the 24-25-kDa protein by K11777-alkyne after pre-treatment: pre-treatment 1 μM K777, 1 μM K777 alkyne, SARS-CoV-2 infected and uninfected cells", "experimental": "4N-propargyl-K11777 was added at concentrations of 1-10 µM to Vero E6 (African green monkey kidney cells), with and without infection by SARS CoV-2 viral particles at an multiplicity of infection of 0.1. […] Cells growth continued for 4 days, followed by harvest, and ˜ 20 million cells were suspended in 1 mL of lysis buffer (200 mM Tris, 4% CHAPS, 1M NaCl, 8 M Urea, pH=8) and protease inhibitor cocktail (Sigma Aldrich) at a ratio of 50:1 (v/v). Cells were lysed by sonication (ThermoFisher Scientific), with the sample on ice, with a ⅛-inch probe at 20% amplitude for 3-seconds, three times with a minute delay between pulses. The cell debris was pelleted (10,000×g for 10 minutes) followed by removal of the supernatant and determination of protein concentration by BCA assay (ThermoFisher Scientific). Labeling of the K11777-alkyne-treated cells was performed in a stepwise fashion whereby 100 mM TBTA in 1:4 DMSO: n-butanol (v/v) was added to 1 mM CuSO4 in water, followed by the addition of 20 mM Cy7-azide (Click Chemistry Tools) in DMSO, 24 μg cell lysate, and finally 2.5 mM sodium ascorbate in water. This reaction was incubated at room temperature for 1-3 hours and quenched by the addition ice-cold methanol (200 μL), chloroform (75 μL), and water (150 μL) followed by vortexing and centrifugation at 15,000 RPM at 4° C. for 15 minutes. […] Then, 4× loading dye (240 mM Tris-HCl, 8% SDS (w/v), 0.004% bromophenol blue (to avoid fluorescence from the dye), 5 mM DTT, and MilliQ water was added to a total volume of 24 μL. Samples were heated to 95° C. for 5 minutes followed by a brief centrifugation at 5,000 RPM for 1 min. The protein-standards ladder (Bio-Rad, Precision Plus Protein™ Dual Color Standards) was diluted 10,000 fold in 4% SDS buffer, loading dye, and water and loading dye 4× loading dye and water to avoid strong fluorescence from the ladder during imaging. Samples were analyzed on a 12% Bis-Tris Nu-PAGE gel (Invitrogen). […] Densitometry of in gel fluorescence was conducted using ImageJ. The gels were also analyzed by Coomassie Brilliant Blue R-250 staining (Bio-Rad)."}, "[5]": {"system": "Vero E6 cells", "assay": "Azide enrichment and proteomic analysis of K11777-alkyne treated Vero E6 cells", "type": "cell-based, African green monkey", "experimental": "Cell lysates of Vero E6 cells were prepared as described above. Enrichment of alkyne-modified proteins was conducted using the Click-&-Go Protein Enrichment Kit (Click Chemistry Tools) and the protocols thereof. Proteolysis of the resin-bound, enriched proteins, which had been reduced with DTT and alkylated with iodoacetamide, was conducted by addition of 1 μg of Trypsin Gold (Promega) at 37° C. overnight with gentle agitation. The digested peptides were then eluted from the column and subjected to desalting using Pierce™ C18 Tips, 100 μL bed (Thermo Fisher Scientific). The desalted peptides were concentrated to dryness via speed vacuum centrifugation, and suspended in 25 mM ammonium bicarbonate. […]\nData were processed using MaxQuant 1.6.14. Label-free quantification was enabled at the default parameters. […] MaxQuant result files were analyzed using Perseus 1.6.14. Reverse hits, potential contaminant hits, hits only identified by site and hits for which only one peptide was detected were removed. Only proteins which were not detected in the control were considered. […] Finally, proteins which were detected in at least two test samples were clustered based on highest to lowest intensity in the 5 μM and 10 μM treated columns at default parameters (column clustering was disabled) and plotted as a heat map."}, "[6]": {"system": "pseudovirus SARS CoV-1", "conditions": "cited from earlier work"}, "[7]": {"system": "host cells", "assay": "Toxicity in host cells"}, "[8]": {"molecular_target": "T1, cathepsin L", "assay": "Proteolysis of SARS CoV-2 Spike protein by cathepsin L", "type": "biochemical", "conditions": "pH 5.5"}, "[9]": {"molecular_target": "cruzain (Trypanosoma cruzi, UniProt P25779)", "sequence (P25779 123-337)": "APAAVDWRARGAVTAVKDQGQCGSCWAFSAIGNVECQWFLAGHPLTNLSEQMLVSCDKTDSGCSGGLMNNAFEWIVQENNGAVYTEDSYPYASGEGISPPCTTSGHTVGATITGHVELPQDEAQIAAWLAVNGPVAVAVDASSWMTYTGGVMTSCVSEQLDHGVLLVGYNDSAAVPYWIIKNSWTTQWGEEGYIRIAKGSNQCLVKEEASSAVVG", "assay": "Cruzain inactivation", "type": "biochemical"}}, "note": "Residues, ends and D or L forms follow the SMILES beside them."}
{"smiles": "Cc1cc(=O)oc2cc(NC(=O)[C@H](CCCN=C(N)N)NC(=O)[C@H](Cc3ccccc3)NC(=O)OCc3ccccc3)ccc12", "note": "[Cbz-Phe-Arg-AMC, reference compound] (HELM PEPTIDE1{[O=C(OCc1ccccc1)[*:2]].F.R.[Cc1cc(=O)oc2cc(N[*:1])ccc12]}$$$$V2.0)", "values": [{"measurement": "Michaelis constant", "setting": "[1]", "value": 150, "unit": "µM"}, {"measurement": "Michaelis constant", "setting": "[2]; substrate, pH 5.5, 25° C.", "value": 2.9, "unit": "µM"}, {"measurement": "Michaelis constant", "setting": "[3]; substrate, pH 5.5, 25° C.", "value": 60, "unit": "µM"}]}
{"smiles": "C#CCN1CCN(C(=O)N[C@@H](Cc2ccccc2)C(=O)N[C@H](/C=C/S(=O)(=O)c2ccccc2)CCc2ccccc2)CC1", "note": "[N4-Propargyl-K11777, N-((S)-1-oxo-3-phenyl-1-(((S,E)-5-phenyl-1-(phenylsulfonyl)pent-1-en-3-yl)amino)propan-2-yl)-4-(prop-2-yn-1-yl)piperazine-1-carboxamide]", "values": [{"measurement": "proteins labeled in Vero E6 cells", "setting": "[4]; infected and un-infected with CoV-2, Cy7 azide", "value": "labels only cellular proteins of an apparent molecular weight of 24-25 kDa"}, {"measurement": "most enriched labeled proteins (bead capture, mass spectrometry)", "setting": "[5]; listed as K777 alkyne", "value": "cathepsins B and L are strongly enriched"}, {"measurement": "most enriched labeled proteins (bead capture, mass spectrometry)", "setting": "[5]; listed as N4-propargyl analogue of K11777", "value": "cathepsins L and B"}]}
{"smiles": "CN1CCN(C(=O)N[C@@H](Cc2ccccc2)C(=O)N[C@H](/C=C/S(=O)(=O)c2ccccc2)CCc2ccccc2)CC1", "note": "[K11777, 4-methyl-N-((S)-1-oxo-3-phenyl-1-(((S,E)-5-phenyl-1-(phenylsulfonyl)pent-1-en-3-yl)amino)propan-2-yl)piperazine-1-carboxamide]", "values": [{"measurement": "labelling of the 24-25-kDa protein by K11777-alkyne after pre-treatment", "setting": "[4]", "value": "prevented labelling"}, {"measurement": "labelling of the 24-25-kDa protein by K11777-alkyne after pre-treatment", "setting": "[4]; listed as K777", "value": "blocked"}, {"measurement": "infection of Vero, A549 and other mammalian cells by pseudovirus SARS CoV-1", "setting": "[6]", "value": "exceptionally potent inhibitor"}, {"measurement": "toxicity in host cells", "setting": "[7]", "value": "No toxicity"}, {"measurement": "cathepsin L-catalyzed proteolysis of SARS CoV-2 Spike protein", "setting": "[8]", "value": "blocked"}, {"measurement": "cathepsin L-catalyzed proteolysis of SARS CoV-2 Spike protein", "setting": "[8]; listed as K777", "value": "inhibited"}, {"measurement": "inactivation of cathepsin L", "setting": "[2]", "value": "exceptionally potent, covalent inactivator"}, {"measurement": "inactivation of cathepsin S", "setting": "[3]", "value": "exceptionally potent, covalent inactivator"}, {"measurement": "inactivation of cruzain", "setting": "[9]", "value": "exceptionally potent, covalent inactivator"}]}
